The compounds below were run against T1, SARS-CoV-2 3CLpro (Severe acute respiratory syndrome coronavirus 2, UniProt P0DTD1) (assay: biochemical). Settings: 20 µM; no DTT.
T1 construct: Each well contained 25 nM of SARS-CoV-2 3CL^Pro and eCFP-Venus biosensor (500 nM)

Point of comparison: CC(C)[C@H](NC(=O)C(=O)c1c[nH]c2ccc(Br)cc12)C(=O)O [Compound 53, 5-bromoindolyl-3-glyoxyl-L-valine], “% inhibition @ 20 µM, No DTT” value 1.9%. Against it:
- N=C(N)NCCC[C@@H](NC(=O)C(=O)c1c[nH]c2ccc(Br)cc12)C(=O)O [Compound 30, 5-bromoindolyl-3-glyoxyl-D-arginine] — higher, 10.1%
- N=C(N)NCCC[C@H](NC(=O)C(=O)c1c[nH]c2cc(Br)ccc12)C(=O)O [Compound 31, 6-bromoindolyl-3-glyoxyl-L-arginine] — higher, 4.3%
- N=C(N)NCCC[C@@H](NC(=O)C(=O)c1c[nH]c2cc(Br)ccc12)C(=O)O [Compound 32, 6-bromoindolyl-3-glyoxyl-D-arginine] — higher, 3.0%
- O=C(N[C@@H](CO)C(=O)O)C(=O)c1c[nH]c2cc(Br)ccc12 [Compound 44, 6-bromoindolyl-3-glyoxyl-L-serine] — higher, 7.3%
- O=C(N[C@@H](Cc1ccc(O)cc1)C(=O)O)C(=O)c1c[nH]c2ccc(Br)cc12 [Compound 49, 5-bromoindolyl-3-glyoxyl-L-tyrosine] — higher, 15.0%
- CC(C)[C@@H](NC(=O)C(=O)c1c[nH]c2ccc(Br)cc12)C(=O)O [Compound 54, 5-bromoindolyl-3-glyoxyl-D-valine] — lower, 1.3%
- CC(C)[C@H](NC(=O)C(=O)c1c[nH]c2cc(Br)ccc12)C(=O)O [Compound 55, 6-bromoindolyl-3-glyoxyl-L-valine] — higher, 6.8%
- CC(C)[C@@H](NC(=O)C(=O)c1c[nH]c2cc(Br)ccc12)C(=O)O [Compound 56, 6-bromoindolyl-3-glyoxyl-D-valine] — higher, 6.8%

Same assay, conditions: 20 µM; no DTT; read-out: % inhibition @ 20 µM, No DTT

With O=C(N[C@@H](CSSC[C@H](NC(=O)C(=O)c1c[nH]c2ccc(Br)cc12)C(=O)O)C(=O)O)C(=O)c1c[nH]c2ccc(Br)cc12 [Compound 33, 5-bromoindolyl-3-glyoxyl-L-cystine] the inhibition at 20 µM was 64.1%.

Same assay, conditions: 20 µM; with DTT (4 mM)

Point of comparison: CC(C)[C@@H](NC(=O)C(=O)c1c[nH]c2cc(Br)ccc12)C(=O)O [Compound 56, 6-bromoindolyl-3-glyoxyl-D-valine], “% inhibition @ 20 µM, DTT” value 2.7%. Against it:
- N=C(N)NCCC[C@@H](NC(=O)C(=O)c1c[nH]c2ccc(Br)cc12)C(=O)O [Compound 30, 5-bromoindolyl-3-glyoxyl-D-arginine] — lower, 1.0%
- N=C(N)NCCC[C@H](NC(=O)C(=O)c1c[nH]c2cc(Br)ccc12)C(=O)O [Compound 31, 6-bromoindolyl-3-glyoxyl-L-arginine] — lower, 2.4%
- N=C(N)NCCC[C@@H](NC(=O)C(=O)c1c[nH]c2cc(Br)ccc12)C(=O)O [Compound 32, 6-bromoindolyl-3-glyoxyl-D-arginine] — lower, 0.8%
- O=C(N[C@@H](CO)C(=O)O)C(=O)c1c[nH]c2cc(Br)ccc12 [Compound 44, 6-bromoindolyl-3-glyoxyl-L-serine] — higher, 2.9%
- O=C(N[C@@H](Cc1ccc(O)cc1)C(=O)O)C(=O)c1c[nH]c2ccc(Br)cc12 [Compound 49, 5-bromoindolyl-3-glyoxyl-L-tyrosine] — lower, 1.9%
- CC(C)[C@H](NC(=O)C(=O)c1c[nH]c2ccc(Br)cc12)C(=O)O [Compound 53, 5-bromoindolyl-3-glyoxyl-L-valine] — lower, 1.3%
- CC(C)[C@@H](NC(=O)C(=O)c1c[nH]c2ccc(Br)cc12)C(=O)O [Compound 54, 5-bromoindolyl-3-glyoxyl-D-valine] — lower, 1.0%
- CC(C)[C@H](NC(=O)C(=O)c1c[nH]c2cc(Br)ccc12)C(=O)O [Compound 55, 6-bromoindolyl-3-glyoxyl-L-valine] — higher, 3.0%

Same assay, conditions: 20 µM; with DTT (4 mM); read-out: % inhibition @ 20 µM, DTT

For O=C(N[C@@H](CSSC[C@H](NC(=O)C(=O)c1c[nH]c2ccc(Br)cc12)C(=O)O)C(=O)O)C(=O)c1c[nH]c2ccc(Br)cc12 [Compound 33, 5-bromoindolyl-3-glyoxyl-L-cystine], the inhibition at 20 µM was 2%.

Same assay, conditions: no DTT

Compound O=C(N[C@@H](CSSC[C@H](NC(=O)C(=O)c1c[nH]c2ccc(Br)cc12)C(=O)O)C(=O)O)C(=O)c1c[nH]c2ccc(Br)cc12 [Compound 33, 5-bromoindolyl-3-glyoxyl-L-cystine] has an IC50 of 12.5 µM.

Same assay, conditions: read-out: % inhibition @ 20 µM, DTT

O=c1c2ccccc2[se]n1-c1ccccc1 [Ebselen, reference compound] gave an inhibition at 20 µM of 0.2%.

Same assay, conditions: read-out: % inhibition @ 20 µM, No DTT

O=c1c2ccccc2[se]n1-c1ccccc1 [Ebselen, reference compound] showed an inhibition at 20 µM of 114%.

The compounds below were run against T2, porcine pancreatic elastase (Sus scrofa, UniProt P00772) (assay: Serine protease assay, elastase). Settings: remaining enzyme activity.
T2 construct: high-purity porcine pancreatic elastase (Sigma, Melbourne, Victoria, Australia, E0258); purchased Sigma E0258
Format: biochemical
Protocol: (§1) Serine protease-inhibitory activities for 25–56 were determined in 96 well plates. Each inhibitor was initially tested in duplicate against elastase and chymotrypsin at 10 µM. […] Assays for the inhibition of elastase were undertaken using high-purity porcine pancreatic elastase (Sigma, Melbourne, Victoria, Australia, E0258) in an assay buffer of 50 mM Tris-HCl (pH 8.0) at room temperature. Dilutions of each inhibitor (originally resuspended in DMSO) were prepared in triplicate and then preincubated with 375 ng of elastase for 15 min at room temperature in a total reaction volume of 85 µL. Following this preincubation, 15 µL of 2 mM N-succinyl-Ala-Ala-Ala-p-nitroanilide (Sigma, S4760) in assay buffer was added to each well and kinetic measurement of absorbance at 405 nm (Tecan Spark Plate Reader, Zürich, Switzerland) was undertaken for 30 min. […] Dilutions of each inhibitor were prepared in triplicate and preincubated with 5 µg of chymotrypsin for 10 min at 37 °C in a total reaction volume of 75 µL. After preincubation, 25 µL of 2 mM N-succinyl-Gly-Gly-Phe-p-nitroanilide (Sigma, S1899) was added to each well and kinetic measurement of absorbance at 405 nm was undertaken for 30 min. Inhibitory activity was determined by comparison of the slope of the reaction curve for multiple dilutions of the inhibitor to that of an equivalent solvent control and expressed as IC50 ± standard deviation.

T2 sequence (P00772 27-266): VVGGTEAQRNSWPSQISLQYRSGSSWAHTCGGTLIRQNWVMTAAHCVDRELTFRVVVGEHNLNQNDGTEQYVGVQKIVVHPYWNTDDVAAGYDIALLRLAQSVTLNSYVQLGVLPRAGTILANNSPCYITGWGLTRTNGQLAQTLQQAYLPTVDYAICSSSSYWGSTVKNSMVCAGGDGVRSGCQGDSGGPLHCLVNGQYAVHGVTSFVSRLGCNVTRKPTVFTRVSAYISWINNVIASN

Point of comparison: O=C(N[C@@H](Cc1ccc(O)cc1)C(=O)O)C(=O)c1c[nH]c2ccc(Br)cc12 [Compound 49, 5-bromoindolyl-3-glyoxyl-L-tyrosine], “% enzyme activity @ 10 µM, elastase” value 99.5%. Against it:
- N=C(N)NCCC[C@@H](NC(=O)C(=O)c1c[nH]c2ccc(Br)cc12)C(=O)O [Compound 30, 5-bromoindolyl-3-glyoxyl-D-arginine] — lower, 96.2%
- N=C(N)NCCC[C@H](NC(=O)C(=O)c1c[nH]c2cc(Br)ccc12)C(=O)O [Compound 31, 6-bromoindolyl-3-glyoxyl-L-arginine] — lower, 99.3%
- N=C(N)NCCC[C@@H](NC(=O)C(=O)c1c[nH]c2cc(Br)ccc12)C(=O)O [Compound 32, 6-bromoindolyl-3-glyoxyl-D-arginine] — higher, 102.3%
- O=C(N[C@@H](CO)C(=O)O)C(=O)c1c[nH]c2cc(Br)ccc12 [Compound 44, 6-bromoindolyl-3-glyoxyl-L-serine] — lower, 99.0%
- CC(C)[C@H](NC(=O)C(=O)c1c[nH]c2ccc(Br)cc12)C(=O)O [Compound 53, 5-bromoindolyl-3-glyoxyl-L-valine] — higher, 101.3%
- CC(C)[C@@H](NC(=O)C(=O)c1c[nH]c2ccc(Br)cc12)C(=O)O [Compound 54, 5-bromoindolyl-3-glyoxyl-D-valine] — higher, 105.4%
- CC(C)[C@H](NC(=O)C(=O)c1c[nH]c2cc(Br)ccc12)C(=O)O [Compound 55, 6-bromoindolyl-3-glyoxyl-L-valine] — lower, 88.9%
- CC(C)[C@@H](NC(=O)C(=O)c1c[nH]c2cc(Br)ccc12)C(=O)O [Compound 56, 6-bromoindolyl-3-glyoxyl-D-valine] — higher, 104.4%

In the case of O=C(N[C@@H](CSSC[C@H](NC(=O)C(=O)c1c[nH]c2ccc(Br)cc12)C(=O)O)C(=O)O)C(=O)c1c[nH]c2ccc(Br)cc12 [Compound 33, 5-bromoindolyl-3-glyoxyl-L-cystine], the remaining activity at 10 µM is reported as 107%.

What follows are compounds tested against T3, α-chymotrypsin from bovine pancreas (Bos taurus, UniProt P00766) (assay: Serine protease assay, chymotrypsin). Settings: 10 µM; remaining enzyme activity.
T3 construct: α-chymotrypsin from bovine pancreas (Sigma, C4129); purchased Sigma C4129; host or cells: bovine pancreas
Format: biochemical
Protocol: as §1

Point of comparison: CC(C)[C@@H](NC(=O)C(=O)c1c[nH]c2cc(Br)ccc12)C(=O)O [Compound 56, 6-bromoindolyl-3-glyoxyl-D-valine], “% enzyme activity @ 10 µM, chymotrypsin” value 94.0%. Against it:
- N=C(N)NCCC[C@@H](NC(=O)C(=O)c1c[nH]c2ccc(Br)cc12)C(=O)O [Compound 30, 5-bromoindolyl-3-glyoxyl-D-arginine] — lower, 86.3%
- N=C(N)NCCC[C@H](NC(=O)C(=O)c1c[nH]c2cc(Br)ccc12)C(=O)O [Compound 31, 6-bromoindolyl-3-glyoxyl-L-arginine] — higher, 99.5%
- N=C(N)NCCC[C@@H](NC(=O)C(=O)c1c[nH]c2cc(Br)ccc12)C(=O)O [Compound 32, 6-bromoindolyl-3-glyoxyl-D-arginine] — higher, 99.2%
- O=C(N[C@@H](CO)C(=O)O)C(=O)c1c[nH]c2cc(Br)ccc12 [Compound 44, 6-bromoindolyl-3-glyoxyl-L-serine] — higher, 97.1%
- O=C(N[C@@H](Cc1ccc(O)cc1)C(=O)O)C(=O)c1c[nH]c2ccc(Br)cc12 [Compound 49, 5-bromoindolyl-3-glyoxyl-L-tyrosine] — lower, 82.9%
- CC(C)[C@H](NC(=O)C(=O)c1c[nH]c2ccc(Br)cc12)C(=O)O [Compound 53, 5-bromoindolyl-3-glyoxyl-L-valine] — lower, 91.6%
- CC(C)[C@@H](NC(=O)C(=O)c1c[nH]c2ccc(Br)cc12)C(=O)O [Compound 54, 5-bromoindolyl-3-glyoxyl-D-valine] — higher, 97.3%
- CC(C)[C@H](NC(=O)C(=O)c1c[nH]c2cc(Br)ccc12)C(=O)O [Compound 55, 6-bromoindolyl-3-glyoxyl-L-valine] — higher, 105.0%

O=C(N[C@@H](CSSC[C@H](NC(=O)C(=O)c1c[nH]c2ccc(Br)cc12)C(=O)O)C(=O)O)C(=O)c1c[nH]c2ccc(Br)cc12 [Compound 33, 5-bromoindolyl-3-glyoxyl-L-cystine] showed a remaining activity at 10 µM of 94.7%.

— article PMC11314621, “Cheminformatics-Guided Exploration of Synthetic Marine Natural Product-Inspired Brominated Indole-3-Glyoxylamides and Their Potentials for Drug Discovery” (Molecules, 2024)
